Laboratory results reported in patent EP0339444A1, “Elaiophylin derivatives, process for their preparation and use as medicaments” (HOECHST AKTIENGESELLSCHAFT, priority 1988, dated 1989).

System: Haemunchus contortus
Assay: Anthelmintic activity in lambs artificially infected with abomasal nematodes (coproscopy up to 14 days after application, then necropsy with helminthological work-up)
Type: in vivo
Conditions: Lämmer 30 bis 40 kg
From the text: Die anthelminthische Wirkung der Elaiophylinderivate wurde an Lämmern mit 30 bis 40 kg Körpergewicht untersucht. Dazu wurden die Lämmer artifiziell mit Infektionsstadien von Labmagennematoden (Haemunchus contortus) infiziert. Nach Abschluß der Entwicklungszeit (Präpatenzperiode) der Nematoden erfolgte die Applikation der Elaiophylinderivate.
Durch koproskopische Untersuchungen vor und bis zu 14 Tagen nach der Applikation der Elaiophylinderivate und anschließender Sektion mit helminthologischer Aufarbeitung wurde die prozentuale Reduktion der Schaf-Nematoden ermittelt (s. Tabelle 7). Als Vergleichssubstanz diente Elaiophylin. Zusätzlich wurde auch noch die antibakterielle Aktivität der erfindungsgemäßen Elaiophylinderivate gegen Staph. aureus und Strept. pyogenes ermittelt. Überraschenderweise zeigen die erfindungsgemäßen Verbindung keine oder nur sehr geringe antibakterielle Aktivität. Gerade deshalb eignen sich die erfindungsgemäßen Verbindungen insbesondere für den Einsatz als Anthelminthika, da hier eine antibakterielle Wirkung unerwünscht ist.

Compound	Reduktion v. H. contortus (%) (Dosierung 5,0 mg/kg (oral))	Reduktion v. H. contortus (%) (Dosierung 2,5 mg/kg (s.c.))
CCC1C(C)OC(O)(C(C)C(O)C(C)C2OC(=O)C3=NNCC3/C=C/C(C)C(C(C)C(O)C(C)C3(O)CC(OC4CC(O)C(O)C(C)O4)C(CC)C(C)O3)OC(=O)C3=NNCC3/C=C/C2C)CC1OC1CC(O)C(O)C(C)O1 (stereo not shown) [Verbindung 1]	35-45%	–
CCOC(=O)C1NN=C2C(=O)OC(C(C)C(O)C(C)C3(O)CC(OC4CC(O)C(O)C(C)O4)C(CC)C(C)O3)C(C)/C=C/C3C(=NNC3C(=O)OCC)C(=O)OC(C(C)C(O)C(C)C3(O)CC(OC4CC(O)C(O)C(C)O4)C(CC)C(C)O3)C(C)/C=C/C21 (stereo not shown) [Verbindung 6]	50-60%	50-60%
CCC1C(C)OC(O)(C(C)C(O)C(C)C2OC(=O)C3=NNCC3/C=C/C(C)C(C(C)C(O)C(C)C3(O)CC(OC4CC(OC(C)=O)C(OC(C)=O)C(C)O4)C(CC)C(C)O3)OC(=O)C3=NNCC3/C=C/C2C)CC1OC1CC(OC(C)=O)C(OC(C)=O)C(C)O1 (stereo not shown) [Verbindung 2]	40-50%	–
